Legend:
[1] = system: A549 cells; assay: A549 growth inhibition by chemotherapeutic agents (concentration selection); assay type: cell-based, human; settings: A549, serial dilutions, 5 days, CCK-8
Experimental: First, sorafenib was dissolved in dimethyl sulfoxide.
First, gemcitabine was dissolved in dimethyl sulfoxide.
First, paclitaxel was dissolved in […].

[2] = system: A549 (human lung cancer cell line); assay: A549 cell proliferation analysis, anti-CD300c antibody with chemotherapeutic agent; assay type: cell-based; settings: 5 days
Experimental: In order to identify the cancer cell growth inhibitory effect by combined treatment with an anti-CD300c monoclonal antibody and sorafenib, cell proliferation analysis was performed using A549 (human lung cancer cell line). Into a 96-well plate, 20,000 cancer cells were inoculated and treated with 10 ug/mL anti-CD300c monoclonal antibody and 9 μM sorafenib, followed by incubation for 5 days. After the incubation, 10 μL of CCK-8 (DOJINDO) was added to each well, followed by incubation for 4 hours, and the absorbance was measured at 450 nm.
In order to identify the cancer cell growth inhibitory effect by combined treatment with an anti-CD300c monoclonal antibody and gemcitabine, cell proliferation analysis was performed using A549 (human lung cancer cell line). The cells were treated with the anti-CD300c antibody in combination with 1.9 μM gemcitabine for 5 days, and then 10 μL of CCK-8 (DOJINDO) was added to each well, followed by incubation for 4 hours, and the absorbance was measured at 450 nm.
In order to identify the cancer cell growth inhibitory effect by combined treatment with an anti-CD300c monoclonal antibody and paclitaxel, cell proliferation analysis was performed using A549 (human lung cancer cell line). The cells were treated with the anti-CD300c monoclonal antibody in combination with paclitaxel and incubated for 5 days. Thereafter, 10 μL of CCK-8 (DOJINDO) was added to each well, followed by incubation for 4 hours, and the absorbance was measured at 450 nm.

[3] = system: MKN45, IM95, HT-29, A549, HCT116, MDA-MB-231, HepG2 cancer cell lines; assay: Cancer cell apoptosis resistance (rapamycin, Annexin V / PI fluorescence); assay type: cell-based, human; settings: 8 hours treatment, then rapamycin 48 hours
From the text: (§1) In order to identify whether the combined treatment with an anti-CD300c monoclonal antibody and a chemotherapeutic agent can inhibit cancer cell apoptosis resistance, MKN45 (human gastric cancer cell line), IM95 (human gastric cancer cell line), HT-29 (human colon cancer cell line), A549 (human lung cancer cell line), HCT116 (human colon cancer cell line), MDA-MB-231 (human breast cancer cell line), and HepG2 (human liver cancer cell line) were used. Each type of cancer cells were inoculated at 1×10^4 into a 96-well plate and incubated for 16 hours. The incubated cells were treated with an anti-CD300c monoclonal antibody and a chemotherapeutic agent in combination for 8 hours, and then treated with rapamycin for 48 hours. The degree of survival of cancer cells was identified by fluorescence analysis using Annexin V and propidium iodide (PI).
as §1, with “gemcitabine” for “a chemotherapeutic agent”, “The incubated cells were treated with an anti-CD300c monoclonal antibody and a chemotherapeutic agent in combination for 8 hours, and then treated with rapamycin for 48 hours.” left out
In order to identify whether the combined treatment with an anti-CD300c monoclonal antibody and paclitaxel can inhibit cancer cell apoptosis resistance, MKN45 (human gastric cancer cell line), IM95 (human gastric cancer cell line), HT-29 (human colon cancer cell line), A549 (human lung cancer cell line), HCT116 (human colon cancer cell line), MDA-MB-231 (human breast cancer cell line), and HepG2 (human liver cancer cell line) were used. […] The degree of survival of cancer cells was identified by fluorescence analysis using Annexin V and propidium iodide (PI).

[4] = system: MKN45, IM95, HT-29, A549, HCT116, MDA-MB-231, HepG2 cancer cell lines; assay: Cancer cell migration/infiltration (scratch wound); assay type: cell-based, human; settings: 24 hours
From the text: (§2) In order to identify the cancer cell migration/infiltration inhibitory effect by the combined treatment with an anti-CD300c monoclonal antibody and sorafenib, MKN45 (human gastric cancer cell line), IM95 (human gastric cancer cell line), HT-29 (human colon cancer cell line), A549 (human lung cancer cell line), HCT116 (human colon cancer cell line), MDA-MB-231 (human breast cancer cell line), and HepG2 (human liver cancer cell line) were used. Into a 6-well plate, 1×10^5 cancer cells were inoculated and incubated for 16 hours, and then each well was wounded by scratching with a pipette tip. The detached cells were removed by washing with medium, and then treated with an anti-CD300c monoclonal antibody for 8 hours. Thereafter, observation was performed for 24 hours. On the basis of the area of the wound formed by scratching with the pipette tip, the migration distance of cancer cells was measured, and this distance was calculated as a percentage (%) to identify the degree of migration inhibition.
as §2, with “migration/invasion” for “migration/infiltration”, “gemcitabine, MKN45,” for “sorafenib, MKN45 (human gastric cancer cell line),”, “inhibition. […]” for “inhibition.”

[5] = system: CT26 cells (mouse colon cancer cell line); assay: In vivo anticancer effect in huCD34-NSG mice bearing CT26 cells; set-up: species or system humanized mouse models (huCD34-NSG mice); settings: antibody 25 mg/kg, chemotherapeutic agents 10 mg/kg, i.p. twice a week, four times
Experimental: In order to identify the anticancer effect under in vivo conditions by the combined treatment with an anti-CD300c monoclonal antibody and a chemotherapeutic agent, human solid tumor xenograft models were prepared by subcutaneous injection of 1×10^6 CT26 cells (mouse colon cancer cell line) to humanized mouse models (huCD34-NSG mice). From 3 days after the administration of cancer cells, the mice were divided into a group administered 25 mg/kg anti-CD300c monoclonal antibody alone, groups administered the chemotherapeutic agents sorafenib, gemcitabine, and paclitaxel at 10 mg/kg for each, groups administered an anti-CD300c monoclonal antibody and chemotherapeutic agents, and a non-administered group. After the intraperitoneal administration with the anti-CD300c monoclonal antibody and each of the chemotherapeutic agents alone or in combination twice a week, a total of four times, the solid tumor tissue was isolated from the mice to measure the size thereof to identify the therapeutic effect of the anti-CD300c monoclonal antibody alone and the effects of the combined administration with existing chemotherapeutic agents.

Row | Structure (SMILES) | cancer cell growth inhibitory effect [1] | inhibition at 9 µM ([2]; Homo sapiens, 120 h, A549, antibody 10 ug/mL, sorafenib 9 μM, read-out: cancer cell growth inhibitory rate) [%] | increase in MFI compared with hIgG1 isotype control group ([3]; sorafenib experiment) [%] | degree of migration inhibition ([4]; sorafenib experiment) [%] | tumor inhibition rate [5] [%] | cancer cell growth inhibitory rate ([2]; A549, paclitaxel experiment) [%] | increase in MFI compared with hIgG1 isotype control group ([3]; paclitaxel experiment) [%] | degree of migration inhibition ([4]; paclitaxel experiment) [%] | inhibition at 1.9 µM ([2]; Homo sapiens, 120 h, A549, gemcitabine 1.9 μM, read-out: cancer cell growth inhibitory rate) [%] | increase in MFI compared with hIgG1 isotype control group ([3]; gemcitabine experiment) [%] | degree of migration inhibition ([4]; gemcitabine experiment) [%]
1 | CNC(=O)c1cc(Oc2ccc(NC(=O)Nc3ccc(Cl)c(C(F)(F)F)c3)cc2)ccn1 [sorafenib] | concentration-dependent cancer cell growth inhibitory effect | 45 | 21 | 32 | 22 |  |  |  |  |  | 
2 | CC(=O)O[C@H]1C(=O)[C@@]2(C)[C@H]([C@H](OC(=O)c3ccccc3)[C@]3(O)C[C@H](OC(=O)[C@H](O)[C@@H](NC(=O)c4ccccc4)c4ccccc4)C(C)=C1C3(C)C)[C@]1(OC(C)=O)CO[C@@H]1C[C@@H]2O [paclitaxel] | concentration-dependent cancer cell growth inhibitory effect |  |  |  | 21 | 24 | 19 | 20 |  |  | 
3 | Nc1ccn([C@@H]2O[C@H](CO)[C@@H](O)C2(F)F)c(=O)n1 [gemcitabine] | concentration-dependent cancer cell growth inhibitory effect |  |  |  | 25 |  |  |  | 38 | 21 | 28
